Experimental data: patent US11279733B2, “Peptide antibiotics” (priority 2017, dated 2022)
Values after ≈ are worked out from the molar mass of the structure shown. Read-outs that look alike come from different tables or passages of the source. Positions of bridges follow the written chain, without caps; N, C: chain ends. Non-standard residues stand in square brackets, D forms with d. Residues, ends and D or L forms follow the SMILES beside them. *: point of attachment. dPhe(4-CN) = N#Cc1ccc(C[C@@H](N)C(=O)O)cc1; Benzoyl(4-Ph) = O=C(c1ccc(-c2ccccc2)cc1)*; Decanoyl(3R-OH) = CCCCCCC[C@@H](O)CC(=O)*; Ala(cPr) = N[C@@H](CC1CC1)C(=O)O; X4 = CCCCCOc1ccc(C(=O)*)cc1; dOrn = NCCC[C@@H](N)C(=O)O; dDab = NCC[C@@H](N)C(=O)O; Dab = NCC[C@H](N)C(=O)O

How the values were obtained:
A. baumannii ATCC 19606 = conditions: ATCC 19606
Procedure, shortened: (§1)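 Mid-log cultures grown in Mueller Hinton broth at 37° C were tested by 2-fold broth microdilution at 5×10^5 CFU/mL final. Compounds were dissolved in water and tested over a final range of 32 to 0.015 μg/mL.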

A. baumannii GN_093 PmxR = conditions: GN 093 PmxR
Procedure, shortened: as §1

E. coli ATCC 25922 = conditions: ATCC 25922
Procedure, shortened: as §1

K. pneumoniae ATCC 13883 = conditions: ATCC 13883
Procedure, shortened: as §1

[1] = system: K. pneumoniae ATCC 700603, MDR; conditions: ATCC 700603
Procedure, shortened: as §1

[2] = system: K. pneumoniae ATCC BAA-2146, NDM-1 pos; conditions: ATCC BAA-2146
Procedure, shortened: as §1

[3] = system: K. pneumoniae GN_102 PmxR; conditions: GN 102 PmxR
Procedure, shortened: as §1

[4] = system: K. pneumoniae GN_106, PmxR; conditions: GN 106, PmxR
Procedure, shortened: as §1

P. aeruginosa ATCC 27853 = conditions: ATCC 27853
Procedure, shortened: as §1

[5] = system: P. aeruginosa GN_043, PmxR
Procedure, shortened: as §1

[6] = system: P. aeruginosa GN_105, PmxR; conditions: GN 105, PmxR
Procedure, shortened: as §1

[7] = system: S. aureus ATCC 25923, MSSA; conditions: ATCC 25923
Procedure, shortened: as §1

in vitro = conditions: human
Procedure, shortened: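 4000 cells/well, 24 h attach (37 °C, 5% CO2); compound 24 h; 5 μM resazurin 2 h, 37 °C; fluorescence ex/em 560/590. CC50 by curve fit.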

Row | Structure (SMILES) | MIC A. baumannii ATCC 19606 (A. baumannii ATCC 19606) | MIC A. baumannii GN_093 PmxR (A. baumannii GN_093 PmxR) | MIC E. coli ATCC 25922 (E. coli ATCC 25922) | MIC K. pneumoniae ATCC 13883 (K. pneumoniae ATCC 13883) | MIC K. pneumoniae ATCC 700603, MDR [1] | MIC K. pneumoniae ATCC BAA-2146, NDM-1 pos [2] | MIC K. pneumoniae GN_102 PmxR [3] | MIC K. pneumoniae GN_106, PmxR [4] | MIC P. aeruginosa ATCC 27853 (P. aeruginosa ATCC 27853) | MIC P. aeruginosa GN_105, PmxR [6] | MIC S. aureus ATCC 25923, MSSA [7] | CC50 at 24 h (in vitro) | further results
1 | CCCCCCC[C@@H](O)CC(=O)N[C@H](CC(N)=O)C(=O)N[C@H]1CCNC(=O)[C@H](CC(C)C)NC(=O)[C@H](CCN)NC(=O)[C@H](CCN)NC(=O)[C@H](Cc2ccccc2)NC(=O)[C@@H](CC(C)C)NC(=O)[C@H](CCN)NC1=O [compound 6432, 3(R)OH-nC9CO-D-Asn-cyc[L-Dab-L-Dab-D-Leu-L-Phe-L-Dab-L-Dab-L-Leu]] ({Decanoyl(3R-OH)}-[dN][Dab][Dab][dL]F[Dab][Dab]L; lactam 2-C) | 32 µg/mL (≈ 30.2 µM) | >32 µg/mL | 16 µg/mL (≈ 15.1 µM) | 16 µg/mL (≈ 15.1 µM) | 16 µg/mL (≈ 15.1 µM) | 16 µg/mL (≈ 15.1 µM) | 4 µg/mL (≈ 3.78 µM) | 4 µg/mL (≈ 3.78 µM) | 16 µg/mL (≈ 15.1 µM) | 8 µg/mL (≈ 7.56 µM) | >32 µg/mL | > 300 µM | MIC P. aeruginosa GN_043, PmxR ([5]; P. aeruginosa GN_043, PmxR): 4 µg/mL (≈ 3.78 µM)
2 | CCCCCCC[C@@H](O)CC(=O)N[C@H](CCCN)C(=O)N[C@H]1CCNC(=O)[C@H](CC(C)C)NC(=O)[C@H](CCN)NC(=O)[C@H](CCN)NC(=O)[C@H](CC(C)C)NC(=O)[C@@H](Cc2ccccc2)NC(=O)[C@H](CCN)NC1=O [compound 6443, 3(R)OH-nC9CO-D-Orn-cyc[L-Dab-L-Dab-D-Phe-L-Leu-L-Dab-L-Dab-L-Leu]] ({Decanoyl(3R-OH)}-[dOrn][Dab][Dab][dF]L[Dab][Dab]L; lactam 2-C) |  | 16 µg/mL (≈ 15.1 µM) |  |  |  |  | 4 µg/mL (≈ 3.78 µM) | 4 µg/mL (≈ 3.78 µM) |  | 2 µg/mL (≈ 1.89 µM) |  | > 300 µM | MIC, A. baumannii ATCC 19606 (A. baumannii ATCC 19606): 16 µg/mL (≈ 15.1 µM); MIC, E. coli ATCC 25922 (E. coli ATCC 25922): 8 µg/mL (≈ 7.56 µM); MIC, K. pneumoniae ATCC 13883 (K. pneumoniae ATCC 13883): 8 µg/mL (≈ 7.56 µM); MIC, K. pneumoniae ATCC 700603, MDR [1]: 8 µg/mL (≈ 7.56 µM); MIC, K. pneumoniae ATCC BAA-2146, NDM-1 pos [2]: 8 µg/mL (≈ 7.56 µM); MIC, P. aeruginosa ATCC 27853 (P. aeruginosa ATCC 27853): 2 µg/mL (≈ 1.89 µM); MIC P. aeruginosa GN_043, PmxR ([5]; Table 6, polymyxin-resistant): 2 µg/mL (≈ 1.89 µM); MIC, S. aureus ATCC 25923, MSSA [7]: 32 µg/mL (≈ 30.2 µM)
3 | CCCCCOc1ccc(C(=O)N[C@H](CCN)C(=O)N[C@H]2CCNC(=O)[C@H](CC(C)C)NC(=O)[C@H](CCN)NC(=O)[C@H](CCN)NC(=O)[C@H](Cc3ccccc3)NC(=O)[C@@H](CC(C)C)NC(=O)[C@H](CCN)NC2=O)cc1 [compound 6520, 4-(pentyloxy)benzoic acid-D-Dab-cyc[L-Dab-L-Dab-D-Leu-L-Phe-L-Dab-L-Dab-L-Leu]] (X4-[dDab][Dab][Dab][dL]F[Dab][Dab]L; lactam 2-C) | >32 µg/mL | 32 µg/mL (≈ 30.1 µM) | 2 µg/mL (≈ 1.88 µM) | 32 µg/mL (≈ 30.1 µM) | 8 µg/mL (≈ 7.52 µM) | 8 µg/mL (≈ 7.52 µM) | 32 µg/mL (≈ 30.1 µM) | >32 µg/mL | 4 µg/mL (≈ 3.76 µM) | 4 µg/mL (≈ 3.76 µM) | 32 µg/mL (≈ 30.1 µM) | > 300 µM | MIC P. aeruginosa GN_043, PmxR ([5]; P. aeruginosa GN_043, PmxR): 4 µg/mL (≈ 3.76 µM)
4 | CC(C)C[C@@H]1NC(=O)[C@H](CCN)NC(=O)[C@H](CCN)NC(=O)[C@H](CC(C)C)NC(=O)[C@@H](Cc2ccccc2)NC(=O)[C@H](CCN)NC(=O)[C@@H](NC(=O)[C@@H](CCN)NC(=O)c2ccc(-c3ccccc3)cc2)CCNC1=O [compound 6526, Ph-4-PhCO-D-Dab-cyc[L-Dab-L-Dab-D-Phe-L-Leu-L-Dab-L-Dab-L-Leu]] ({Benzoyl(4-Ph)}-[dDab][Dab][Dab][dF]L[Dab][Dab]L; lactam 2-C) | >32 µg/mL | >32 µg/mL | 8 µg/mL (≈ 7.59 µM) | 8 µg/mL (≈ 7.59 µM) | 8 µg/mL (≈ 7.59 µM) | 8 µg/mL (≈ 7.59 µM) | 32 µg/mL (≈ 30.4 µM) | >32 µg/mL | 2 µg/mL (≈ 1.9 µM) | 4 µg/mL (≈ 3.79 µM) | >32 µg/mL | > 300 µM | MIC P. aeruginosa GN_043, PmxR [5]: 1 µg/mL (≈ 0.948 µM)
5 | CCCCCCC[C@@H](O)CC(=O)N[C@H](CCN)C(=O)N[C@H]1CCNC(=O)[C@H](CC(C)C)NC(=O)[C@H](CCN)NC(=O)[C@H](CCN)NC(=O)[C@H](CC(C)C)NC(=O)[C@@H](Cc2ccccc2)NC(=O)[C@H](CCNC(=O)[C@@H](N)CCCNC(=N)N)NC1=O [compound 6655, 3(R)OH-nC9CO-D-Dab-cyc[L-Dab-L-Dab(L-Arg)-D-Phe-L-Leu-L-Dab-L-Dab-L-Leu]] ({Decanoyl(3R-OH)}-[dDab][Dab][Dab](Arg)[dF]L[Dab][Dab]L; lactam 2-C) |  |  |  |  |  |  |  |  |  |  |  | > 300 µM | MIC, A. baumannii ATCC 19606 (A. baumannii ATCC 19606): 32 µg/mL (≈ 26.7 µM); MIC, A. baumannii Cl Ptyela 10073 4512:2, PmxR (A. baumannii GN_093 PmxR): >32 µg/mL; MIC, E. coli ATCC 25922 (E. coli ATCC 25922): 8 µg/mL (≈ 6.66 µM); MIC, K. pneumoniae ATCC 13883 (K. pneumoniae ATCC 13883): 32 µg/mL (≈ 26.7 µM); MIC, K. pneumoniae ATCC 700603, MDR [1]: 8 µg/mL (≈ 6.66 µM); MIC, K. pneumoniae ATCC BAA-2146, NDM-1 pos [2]: 16 µg/mL (≈ 13.3 µM); MIC, K. pneumoniae Cl Koprana 10065 0661:1, PmxR [3]: 16 µg/mL (≈ 13.3 µM); MIC, K. pneumoniae Cl 138-16347-20362, PmxR [4]: >32 µg/mL; MIC, P. aeruginosa ATCC 27853 (P. aeruginosa ATCC 27853): 4 µg/mL (≈ 3.33 µM); MIC, P. aeruginosa FADDI-PA070, PmxR ([5]; Table 5, polymyxin-resistant): 4 µg/mL (≈ 3.33 µM); MIC, P. aeruginosa PA9704, PmxR [6]: 4 µg/mL (≈ 3.33 µM); MIC, S. Aureus ATCC 25923, MSSA [7]: 16 µg/mL (≈ 13.3 µM)
6 | CCCCCCC[C@@H](O)CC(=O)N[C@H](CCN)C(=O)N[C@H]1CCNC(=O)[C@H](Cc2c[nH]c3ccccc23)NC(=O)[C@H](CCN)NC(=O)[C@H](CCN)NC(=O)[C@H](CC2CC2)NC(=O)[C@@H](Cc2ccccc2)NC(=O)[C@H](CCN)NC1=O [compound 8099, 3(R)OH-nC9CO-D-Dab-cyc[L-Dab-L-Dab-D-Phe-L-Ala(cycloprop)-L-Dab-L-Dab-L-Trp]] ({Decanoyl(3R-OH)}-[dDab][Dab][Dab][dF][Ala(cPr)][Dab][Dab]W; lactam 2-C) | 8 µg/mL (≈ 7.17 µM) | 16 µg/mL (≈ 14.3 µM) | 8 µg/mL (≈ 7.17 µM) | 8 µg/mL (≈ 7.17 µM) | 8 µg/mL (≈ 7.17 µM) | 4 µg/mL (≈ 3.59 µM) | 4 µg/mL (≈ 3.59 µM) | 4 µg/mL (≈ 3.59 µM) | 2 µg/mL (≈ 1.79 µM) | >32 µg/mL | 16 µg/mL (≈ 14.3 µM) | 73 µM | MIC P. aeruginosa GN_043, PmxR ([5]; polymyxin-resistant): 2 µg/mL (≈ 1.79 µM)
7 | CCCCCCC[C@@H](O)CC(=O)N[C@H](CCN)C(=O)N[C@H]1CCNC(=O)[C@H](Cc2c[nH]c3ccccc23)NC(=O)[C@H](CCN)NC(=O)[C@H](CCN)NC(=O)[C@H](CC(C)C)NC(=O)[C@@H](Cc2ccc(C#N)cc2)NC(=O)[C@H](CCN)NC1=O [compound 8105, 3(R)OH-nC9CO-D-Dab-cyc[L-Dab-L-Dab-L-Dab-D-Phe(4-CN)-L-Leu-L-Dab-L-Dab-L-Trp]] ({Decanoyl(3R-OH)}-[dDab][Dab][Dab][dPhe(4-CN)]L[Dab][Dab]W; lactam 2-C) | 8 µg/mL (≈ 7 µM) | 16 µg/mL (≈ 14 µM) | 4 µg/mL (≈ 3.5 µM) | 8 µg/mL (≈ 7 µM) | 8 µg/mL (≈ 7 µM) | 4 µg/mL (≈ 3.5 µM) | 4 µg/mL (≈ 3.5 µM) | 8 µg/mL (≈ 7 µM) | 2 µg/mL (≈ 1.75 µM) | 2 µg/mL (≈ 1.75 µM) | 4 µg/mL (≈ 3.5 µM) | 107 µM | MIC P. aeruginosa GN_043, PmxR ([5]; polymyxin-resistant): 2 µg/mL (≈ 1.75 µM)
